# Molecular target: S. aureus GyrB ATPase (Staphylococcus aureus, UniProt P0A0K8)
# Test: S. aureus GyrB ATPase inhibition (ammonium molybdate/malachite green phosphate detection)
# Type: biochemical
# Conditions: compound concentration of 1 μM (unless otherwise noted)
# Experimental: E. coli GyrB ATPase Inhibition Activity: Compounds can be tested for inhibition of E. coli GyrB ATPase activity using an ammonium molybdate/malachite green-based phosphate detection assay (Lanzetta, P. A., L. J. Alvarez, P. S. Reinach, and O. A. Candia, 1979, 100: 95-97). Assays can be performed in multiwell plates in 30 μl reactions containing: 50 mM Hepes buffer pH 7.5, 75 mM ammonium acetate, 8.0 mM magnesium chloride, 0.5 mM ethylenediaminetetraacetic acid, 5% glycerol, 1 mM 1,4-Dithio-DL-threitol, 200 nM bovine serum albumin, 1.6 μg/ml sheared salmon sperm DNA, 400 pM E. coli GyrA, 400 pM E. coli GyrB, 250 μM ATP, and compound in dimethylsulfoxide. Reactions can be quenched with 30 μl of ammonium molybdate/malachite green detection reagent containing 1.2 mM malachite green hydrochloride, 8.5 mM ammonium molybdate tetrahydrate, and 1 M hydrochloric acid. Plates can be read in an absorbance plate reader at 650 nm and percent inhibition values are calculated using dimethylsulfoxide (2%)-containing reactions as 0% inhibition and EDTA-containing (2.4 μM) reactions as 100% inhibition controls. An IC50 measurement of compound potency for each compound can be determined from reactions performed in the presence of 10 different compound concentrations. E. coli Topoisomerase IV ATPase Inhibition Activity: Compounds can be tested for inhibition of E. coli topoisomerase IV ATPase activity as described above for E. coli GyrB except the 30 μl reactions contained the following: 20 mM TRIS buffer pH 8, 50 mM ammonium acetate, 8 mM magnesium chloride, 5% glycerol, 5 mM 1,4-Dithio-DL-threitol, 0.005% Brij-35, 5 μg/ml sheared salmon sperm DNA, 500 pM E. coli ParC, 500 pM E. coli ParE, 160 μM ATP, and compound in dimethylsulfoxide. An IC50 measurement of compound potency for each compound can be determined from reactions performed in the presence of 10 different compound concentrations. S. aureus GyrB ATPase Inhibition Activity: Compounds may be tested for inhibition of S. aureus GyrB ATPase activity using an ammonium molybdate/malachite green-based phosphate detection assay (Lanzetta, P. A., L. J. Alvarez, P. S. Reinach, and O. A. Candia, 1979, 100: 95-97). Assays can be performed in multiwell plates in 30 μl reactions containing: 50 mM Hepes buffer pH 7.5, 75 mM ammonium acetate, 8.0 mM magnesium chloride, 0.5 mM ethylenediaminetetraacetic acid, 5% glycerol, 1.0 mM 1,4-Dithio-DL-threitol, 200 nM bovine serum albumin, 1.0 μg/ml sheared salmon sperm DNA, 250 pM E. coli GyrA, 250 pM S. aureus GyrB, 250 μM ATP, and compound in dimethylsulfoxide. Reactions can be quenched with 30 μl of ammonium molybdate/malachite green detection reagent containing 1.2 mM malachite green hydrochloride, 8.5 mM ammonium molybdate tetrahydrate, and 1 M hydrochloric acid. Plates can be read in an absorbance plate reader at 650 nm and percent inhibition values can be calculated using dimethylsulfoxide (2%)-containing reactions as 0% inhibition and EDTA-containing (2.4 μM) reactions as 100% inhibition controls. An IC50 measurement of compound potency for each compound can be determined from reactions performed in the presence of 10 different compound concentrations.
# Compounds of the invention were tested in an assay substantially similar to the assay described above for measuring the inhibition of S. aureus GyrB ATPase. Percent inhibition of S. aureus GyrB ATPase at a compound concentration of 1 μM (unless otherwise noted) is disclosed in the following table: […]
# Chain of S. aureus GyrB ATPase (P0AES4 whole entry): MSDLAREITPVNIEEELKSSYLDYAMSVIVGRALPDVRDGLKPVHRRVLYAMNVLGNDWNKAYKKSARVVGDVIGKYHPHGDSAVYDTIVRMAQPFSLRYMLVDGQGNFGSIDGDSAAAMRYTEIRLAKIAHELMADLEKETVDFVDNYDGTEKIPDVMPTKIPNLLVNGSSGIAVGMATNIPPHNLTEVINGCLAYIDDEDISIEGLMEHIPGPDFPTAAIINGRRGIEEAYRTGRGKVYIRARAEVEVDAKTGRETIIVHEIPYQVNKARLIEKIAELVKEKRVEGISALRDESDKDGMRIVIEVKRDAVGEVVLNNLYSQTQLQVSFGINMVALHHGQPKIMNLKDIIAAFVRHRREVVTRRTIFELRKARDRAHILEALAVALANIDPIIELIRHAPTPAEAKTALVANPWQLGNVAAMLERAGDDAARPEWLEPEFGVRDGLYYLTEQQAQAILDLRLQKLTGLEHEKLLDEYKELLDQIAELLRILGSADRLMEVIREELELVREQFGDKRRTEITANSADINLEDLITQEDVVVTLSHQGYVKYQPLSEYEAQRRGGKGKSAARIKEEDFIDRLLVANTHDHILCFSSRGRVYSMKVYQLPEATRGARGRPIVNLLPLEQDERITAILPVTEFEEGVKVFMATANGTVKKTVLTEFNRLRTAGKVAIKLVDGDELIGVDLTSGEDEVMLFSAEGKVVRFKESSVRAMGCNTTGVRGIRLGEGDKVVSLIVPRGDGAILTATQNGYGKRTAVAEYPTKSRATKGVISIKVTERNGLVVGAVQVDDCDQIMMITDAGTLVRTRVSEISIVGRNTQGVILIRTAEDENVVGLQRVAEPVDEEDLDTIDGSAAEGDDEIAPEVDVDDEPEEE
# Chain of S. aureus GyrB ATPase (P0A0K8 whole entry): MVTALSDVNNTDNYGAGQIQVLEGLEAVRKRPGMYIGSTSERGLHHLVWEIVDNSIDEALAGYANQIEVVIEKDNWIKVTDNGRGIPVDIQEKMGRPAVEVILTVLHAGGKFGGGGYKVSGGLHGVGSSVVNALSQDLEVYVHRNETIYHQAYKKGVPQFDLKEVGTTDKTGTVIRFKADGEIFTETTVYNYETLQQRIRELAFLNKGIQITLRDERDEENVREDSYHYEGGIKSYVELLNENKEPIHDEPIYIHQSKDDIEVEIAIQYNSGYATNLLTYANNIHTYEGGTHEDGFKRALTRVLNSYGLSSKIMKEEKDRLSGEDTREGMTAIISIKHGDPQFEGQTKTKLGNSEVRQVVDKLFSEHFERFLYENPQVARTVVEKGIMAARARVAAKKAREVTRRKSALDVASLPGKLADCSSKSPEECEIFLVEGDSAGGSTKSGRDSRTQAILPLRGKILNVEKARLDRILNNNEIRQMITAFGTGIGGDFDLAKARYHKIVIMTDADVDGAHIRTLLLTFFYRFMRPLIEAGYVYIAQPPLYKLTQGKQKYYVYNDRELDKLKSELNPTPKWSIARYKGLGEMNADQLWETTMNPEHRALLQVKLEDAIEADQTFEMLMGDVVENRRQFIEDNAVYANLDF
row,SMILES,inhibition at 1 µM [%]
1,"CCCO[C@H]1CN(c2nc(-c3ncnn3C)c(C(=O)O)s2)CC[C@H]1NC(=O)c1cc(Cl)c(C)[nH]1 [Example 200, 2-[(3S,4R)-4-{[(4-chloro-5-methyl-1H-pyrrol-2-yl)carbonyl]amino}-3-propoxypiperidin-1-yl]-4-(1-methyl-1H-1,2,4-triazol-5-yl)-1,3-thiazole-5-carboxylic acid]",106
2,CCO[C@H]1CN(c2nc(-c3cnc(N4CCNCC4)cn3)c(C(=O)O)s2)CC[C@H]1NC(=O)c1[nH]c(C)c(Cl)c1Cl [Example 89],110
3,CO[C@H]1CN(c2nc(-c3cnc(N4CCN(CC5CCCO5)CC4)cn3)c(C(=O)O)s2)CC[C@H]1NC(=O)c1[nH]c(C)c(Cl)c1Cl (stereo partly drawn) [Example 142],103
4,C=CCO[C@H]1CN(c2nc(-c3ncnn3C)c(C(=O)O)s2)CC[C@H]1NC(=O)c1[nH]c(C)c(Cl)c1C#N [Example 5],5
5,"Cc1[nH]c(C(=O)N[C@@H]2CCN(c3nc(-c4cnc(N5CCN(CC6CCCN(C)C6)CC5)cn4)c(C(=O)O)s3)C[C@@H]2C)c(Cl)c1Cl (stereo partly drawn) [Example 177, 2-[(3S,4R)-4-{[(3,4-dichloro-5-methyl-1H-pyrrol-2-yl)carbonyl]amino}-3-methylpiperidin-1-yl]-4-(5-{4-[(1-methylpiperidin-3-yl)methyl]piperazin-1-yl}pyrazin-2-yl)-1,3-thiazole-5-carboxylic acid]",107
6,CCO[C@H]1CN(c2nc(-c3cnc(N4CCN(CC5CCCN(C)C5)CC4)cn3)c(C(=O)O)s2)CC[C@H]1NC(=O)c1[nH]c(C)c(Cl)c1Cl (stereo partly drawn) [Example 97],112
7,"Cc1[nH]c(C(=O)N[C@@H]2CCN(c3nc(-c4cnc(NCCN5CCCC5=O)cn4)c(C(=O)O)s3)C[C@@H]2C)c(Cl)c1Cl [Example 169, 2-[(3S,4R)-4-{[(3,4-dichloro-5-methyl-1H-pyrrol-2-yl)carbonyl]amino}-3-methylpiperidin-1-yl]-4-(5-{[2-(2-oxopyrrolidin-1-yl)ethyl]amino}pyrazin-2-yl)-1,3-thiazole-5-carboxylic acid]",102
8,CCO[C@H]1CN(c2nc(-c3ncnn3CCOC)c(C(=O)O)s2)CC[C@H]1NC(=O)c1[nH]c(C)c(Cl)c1C#N [Example 13],99
9,CCO[C@H]1CN(c2nc(-c3ncccc3F)c(C(=O)O)s2)CC[C@H]1NC(=O)c1[nH]c(C)c(Cl)c1Cl [Example 10],90
10,"CCCO[C@H]1CN(c2nc(-c3nccn3CCOC)c(C(=O)O)s2)CC[C@H]1NC(=O)c1[nH]c(C)c(Cl)c1C#N [Example 209, 2-[(3S,4R)-4-{[(4-chloro-3-cyano-5-methyl-1H-pyrrol-2-yl)carbonyl]amino}-3-propoxypiperidin-1-yl]-4-[1-(2-methoxyethyl)-1H-imidazol-2-yl]-1,3-thiazole-5-carboxylic acid]",105
11,"Cc1[nH]c(C(=O)N[C@@H]2CCN(c3nc(-c4cnc(N5CCNCC5)cn4)c(C(=O)O)s3)C[C@@H]2C)c(Cl)c1Cl [Example 168, 2-[(3S,4R)-4-{[(3,4-dichloro-5-methyl-1H-pyrrol-2-yl)carbonyl]amino}-3-methylpiperidin-1-yl]-4-[5-(piperazin-1-yl)pyrazin-2-yl]-1,3-thiazole-5-carboxylic acid]",102
12,CCO[C@H]1CN(c2nc(-c3cnc(N4CCN(CC)CC4)cn3)c(C(=O)O)s2)CC[C@H]1NC(=O)c1[nH]c(C)c(Cl)c1Cl [Example 100],102
13,CO[C@H]1CN(c2nc(-c3cnc(N4CCN(CC(C)C)CC4)cn3)c(C(=O)O)s2)CC[C@H]1NC(=O)c1[nH]c(C)c(Cl)c1Cl [Example 134],104
14,"Cc1[nH]c(C(=O)N[C@@H]2CCN(c3nc(-c4cnc(N5CCN(CC(C)C)CC5)cn4)c(C(=O)O)s3)C[C@@H]2C)c(Cl)c1Cl [Example 176, 2-[(3S,4R)-4-{[(3,4-dichloro-5-methyl-1H-pyrrol-2-yl)carbonyl]amino}-3-methylpiperidin-1-yl]-4-{5-[4-(2-methylpropyl)piperazin-1-yl]pyrazin-2-yl}-1,3-thiazole-5-carboxylic acid]",108
15,CO[C@H]1CN(c2nc(-c3cnc(OCCN4CCN(C)CC4)cn3)c(C(=O)O)s2)CC[C@H]1NC(=O)c1[nH]c(C)c(Cl)c1Cl [Example 64],104
16,"CCCO[C@H]1CN(c2nc(-c3nccn3CCOC)c(C(=O)O)s2)CC[C@H]1NC(=O)c1cc(Cl)c(C)[nH]1 [Example 201, 2-[(3S,4R)-4-{[(4-chloro-5-methyl-1H-pyrrol-2-yl)carbonyl]amino}-3-propoxypiperidin-1-yl]-4-[1-(2-methoxyethyl)-1H-imidazol-2-yl]-1,3-thiazole-5-carboxylic acid]",105
17,COCCn1ccnc1-c1nc(N2CC[C@@H](NC(=O)c3[nH]c(C)c(Cl)c3C#N)[C@@H](C)C2)sc1C(=O)O [Example 27],102
18,"Cc1[nH]c(C(=O)N[C@@H]2CCN(c3nc(-c4cnc(N5CCOCC5)cn4)c(C(=O)O)s3)C[C@@H]2C)c(Cl)c1Cl [Example 166, 2-[(3S,4R)-4-{[(3,4-dichloro-5-methyl-1H-pyrrol-2-yl)carbonyl]amino}-3-methylpiperidin-1-yl]-4-[5-(morpholin-4-yl)pyrazin-2-yl]-1,3-thiazole-5-carboxylic acid]",110
19,CO[C@H]1CN(c2nc(-c3cnc(N4CCN(CC5CCCCC5)CC4)cn3)c(C(=O)O)s2)CC[C@H]1NC(=O)c1[nH]c(C)c(Cl)c1Cl [Example 136],104
20,"CCC(CC)N1CCN(c2cnc(-c3nc(N4CC[C@@H](NC(=O)c5[nH]c(C)c(Cl)c5Cl)[C@@H](C)C4)sc3C(=O)O)cn2)CC1 [Example 179, 2-[(3S,4R)-4-{[(3,4-dichloro-5-methyl-1H-pyrrol-2-yl)carbonyl]amino}-3-methylpiperidin-1-yl]-4-{5-[4-(pentan-3-yl)piperazin-1-yl]pyrazin-2-yl}-1,3-thiazole-5-carboxylic acid]",104
21,"CO[C@H]1CN(c2nc(-c3nccc(N4CCCCC4)n3)c(C(=O)O)s2)CC[C@H]1NC(=O)c1[nH]c(C)c(Cl)c1Cl [Example 189, 2-[(3S,4R)-4-{[(3,4-dichloro-5-methyl-1H-pyrrol-2-yl)carbonyl]amino}-3-methoxypiperidin-1-yl]-4-[4-(piperidin-1-yl)pyrimidin-2-yl]-1,3-thiazole-5-carboxylic acid]",106
22,Cc1[nH]c(C(=O)N[C@@H]2CCN(c3nc(-c4cnccn4)c(C(=O)O)s3)C[C@@H]2C)c(C#N)c1Cl [Example 29],98
23,"CCO[C@H]1CN(c2nc(-c3cnc(N4CCCCC4)cn3)c(C(=O)O)s2)CC[C@H]1NC(=O)c1[nH]c(C)c(Cl)c1Cl [Example 86, 2-[(3S,4R)-4-{[(3,4-dichloro-5-methyl-1H-pyrrol-2-yl)carbonyl]amino}-3-ethoxypiperidin-1-yl]-4-[5-(piperidin-1-yl)pyrazin-2-yl]-1,3-thiazole-5-carboxylic acid]",105
24,Cc1[nH]c(C(=O)N[C@@H]2CCN(c3nc(-c4ncnn4C)c(C(=O)O)s3)C[C@@H]2C)cc1Cl [Example 19],112
25,Cc1[nH]c(C(=O)N[C@@H]2CCN(c3nc(-c4ncccc4F)c(C(=O)O)s3)C[C@@H]2C)c(Cl)c1Cl [Example 24],120
26,CCO[C@H]1CN(c2nc(-c3cnc(NCCN4CCN(C)CC4)cn3)c(C(=O)O)s2)CC[C@H]1NC(=O)c1[nH]c(C)c(Cl)c1Cl [Example 95],114
27,"CCCO[C@H]1CN(c2nc(-c3nccn3CCOC)c(C(=O)O)s2)CC[C@H]1NC(=O)c1[nH]c(C)c(Cl)c1Cl [Example 216, 2-[(3S,4R)-4-{[(3,4-dichloro-5-methyl-1H-pyrrol-2-yl)carbonyl]amino}-3-propoxypiperidin-1-yl]-4-[1-(2-methoxyethyl)-1H-imidazol-2-yl]-1,3-thiazole-5-carboxylic acid]",109

# Reference: patent publication US8071605B2, “Piperidine compounds for use in the treatment of bacterial infections” (AstraZeneca AB, priority 2008, dated 2011)
